Measurements from patent US8835425B2, “Use of selective GABA A α5 negative allosteric modulators for the treatment of central nervous system conditions” (Hoffmann-La Roche Inc., priority 2010, dated 2014).
Read-outs that look alike come from different tables or passages of the source.

Columns and labels:
human GABA A α1β2/3γ2 [1] = molecular target: T1, human GABA A α1β2/3γ2 (Homo sapiens, UniProt P14867+P18507); assay: [3H]flumazenil competition binding, HEK293 cells expressing human α1β2/3γ2; parameters: expressed in transfected cells; host or cells: HEK293; details: for hKi α1/hKi α5: binding selectivity ratio
human GABA A α2β3γ2 [2] = molecular target: T2, human GABA A α2β3γ2 (Homo sapiens, UniProt P18507+P47869); assay: [3H]flumazenil competition binding, HEK293 cells expressing human α2β3γ2; parameters: expressed in transfected cells; host or cells: HEK293; details: for hKi α2/hKi α5: binding selectivity ratio
human GABA A α3β3γ2 [3] = molecular target: T3, human GABA A α3β3γ2 (Homo sapiens, UniProt P18507+P34903); assay: [3H]flumazenil competition binding, HEK293 cells expressing human α3β3γ2; parameters: expressed in transfected cells; host or cells: HEK293; details: for hKi α3/hKi α5: binding selectivity ratio
human GABA A α5β3γ2 [4] = molecular target: T4, human GABA A α5β3γ2 (Homo sapiens, UniProt P18507+P31644); assay: Two-microelectrode voltage clamp, modulation of GABA EC10 response in Xenopus oocytes, α5β3γ2; format: cell-based; parameters: expressed in transfected cells; host or cells: Xenopus laevis oocytes; details: % change of submaximal (EC10) response to GABA at 30×Ki
Protocol: (§1) Table 2b. […] Effect at human GABA A α5 receptors: % change of a submaximal (EC10) response to GABA determined at 30×Ki value from the flumazenil binding assay.
(§2) Subtype-selective effects were determined on cloned receptors expressed in Xenopus oocytes. Human recombinant GABA A receptors were expressed in Xenopus laevis oocytes. Current responses were evoked in two-microelectrode voltage-clamp condition by applying an EC10 of GABA before and during the co-application of the test compound. Response amplitudes in the presence of the test compound are expressed as percentage of the amplitudes before drug addition.

human GABA A α1β2/3γ2 [5] = molecular target: T1, human GABA A α1β2/3γ2; assay: Two-microelectrode voltage clamp, modulation of GABA EC10 response in Xenopus oocytes, α1β2/3γ2; format: cell-based; parameters: expressed in transfected cells; host or cells: Xenopus laevis oocytes; details: % change of EC10 GABA response at 3 μM or at 30×Ki if Ki below 0.1 μM
human GABA A α5β3γ2 [6] = molecular target: T4, human GABA A α5β3γ2; assay: [3H]flumazenil competition binding, HEK293 cells expressing human α5β3γ2; parameters: expressed in transfected cells; host or cells: HEK293
human GABA A α2β3γ2 [7] = molecular target: T2, human GABA A α2β3γ2; assay: Two-microelectrode voltage clamp, modulation of GABA EC10 response in Xenopus oocytes, α2β3γ2; format: cell-based; parameters: expressed in transfected cells; host or cells: Xenopus laevis oocytes; details: % change of EC10 GABA response at 3 μM or at 30×Ki if Ki below 0.1 μM
Protocol: as §1, §2

human GABA A α3β3γ2 [8] = molecular target: T3, human GABA A α3β3γ2; assay: Two-microelectrode voltage clamp, modulation of GABA EC10 response in Xenopus oocytes, α3β3γ2; format: cell-based; parameters: expressed in transfected cells; host or cells: Xenopus laevis oocytes; details: % change of EC10 GABA response at 3 μM or at 30×Ki if Ki below 0.1 μM
Protocol: as §1, §2

[9] = [3H]flumazenil competition, human α1β2/3γ2, read-out: hKi α1
[10] = [3H]flumazenil competition, human α2β3γ2, read-out: hKi α2
[11] = [3H]flumazenil competition, human α3β3γ2, read-out: hKi α3
[12] = [3H]flumazenil competition, human α5β3γ2, read-out: hKi α5

Structure (SMILES)	Ki (human GABA A α1β2/3γ2 [1])	hKi α1/hKi α5 (human GABA A α1β2/3γ2 [1])	hKi α2/hKi α5 (human GABA A α2β3γ2 [2])	hKi α3/hKi α5 (human GABA A α3β3γ2 [3])	Efficacy GABA A α5β3γ2 (human GABA A α5β3γ2 [4])	Ki (human GABA A α1β2/3γ2 [1]; [9])	Efficacy GABA A α1β2/3γ2 (human GABA A α1β2/3γ2 [5])	Ki (human GABA A α5β3γ2 [6])	Ki (human GABA A α2β3γ2 [2])	Ki (human GABA A α3β3γ2 [3])	Efficacy GABA A α2β3γ2 (human GABA A α2β3γ2 [7])	Efficacy GABA A α3β3γ2 (human GABA A α3β3γ2 [8])	Ki (human GABA A α2β3γ2 [2]; [10])	Ki (human GABA A α3β3γ2 [3]; [11])	Ki (human GABA A α5β3γ2 [6]; [12])
FCc1ncn2c1Cn1ncnc1-c1cc(F)ccc1-2 [Compound 8580, 3-Fluoro-10-fluoromethyl-9H-imidazo[1,5-a][1,2,4]triazolo[1,5-d][1,4]benzodiazepine]	43.9 nM	5	3	3	−35%	–	–	–	–	–	–	–	–	–	–
N#Cc1ccc2c(c1)-c1ncnn1Cc1c(C(F)F)ncn1-2 [Compound 8582, 3-Cyano-10-difluoromethyl-9H-imidazo[1,5-a][1,2,4]triazolo[1,5-d][1,4]benzodiazepine]	–	16	15	6	−37%	256 nM	−21%	–	–	–	–	–	–	–	–
FC(F)c1ncn2c1Cn1ncnc1-c1ccccc1-2 [Compound 8583, 10-Difluoromethyl-9H-imidazo[1,5-a][1,2,4]triazolo[1,5-d][1,4]benzodiazepine]	–	18	9	7	–	–	–	–	–	–	–	–	–	–	–
Cc1nc2n(n1)Cc1c(CF)ncn1-c1ccc(Cl)cc1-2 [Compound 8584, 3-Chloro-10-fluoromethyl-6-methyl-9H-imidazo[1,5-a][1,2,4]triazolo[1,5-d][1,4]benzodiazepine]	–	50	72	47	–	125 nM	–	–	–	–	–	–	–	–	–
Clc1ncn2c1Cn1ncnc1-c1ccccc1-2 [Compound 8585, 10-Chloro-9H-imidazo[1,5-a][1,2,4]triazolo[1,5-d][1,4]benzodiazepine]	–	14	5	2	−41%	–	−37%	–	–	–	–	–	–	–	–
Clc1ccc2c(c1)-c1ncnn1Cc1c(Cl)ncn1-2 [Compound 8586, 3,10-Dichloro-9H-imidazo[1,5-a][1,2,4]triazolo[1,5-d][1,4]benzodiazepine]	15.3 nM	7	12	7	−33%	–	−5%	2.1 nM	23.7 nM	14 nM	+2%	+7%	–	–	–
Cc1nc2n(n1)Cc1c(Cl)ncn1-c1ccc(C#N)cc1-2 [Compound 8587, 10-Chloro-3-cyano-6-methyl-9H-imidazo[1,5-a][1,2,4]triazolo[1,5-d][1,4]benzodiazepine]	–	23	13	10	−42%	250 nM	−28%	10.9 nM	–	–	–	–	141 nM	106 nM	–
FC(F)c1ccc2c(c1)-c1ncnn1Cc1c(Cl)ncn1-2 [Compound 8588, 10-Chloro-3-difluoromethyl-9H-imidazo[1,5-a][1,2,4]triazolo[1,5-d][1,4]benzodiazepine]	–	19	37	15	–	–	–	–	–	–	–	–	–	–	–
Cc1nc2n(n1)Cc1c(Cl)ncn1-c1ccc(Br)cc1-2 [Compound 8589, 3-Bromo-10-chloro-6-methyl-9H-imidazo[1,5-a][1,2,4]triazolo[1,5-d][1,4]benzodiazepine]	226 nM	37	37	35	–	–	–	6.1 nM	229 nM	216 nM	–	–	–	–	–
Fc1ccc2c(c1)-c1ncnn1Cc1c(Br)ncn1-2 [Compound 8590, 10-Bromo-3-fluoro-9H-imidazo[1,5-a][1,2,4]triazolo[1,5-d][1,4]benzodiazepine]	–	4	7	8	–	–	–	–	–	–	–	–	–	–	–
Cc1ncn2c1Cn1nc(CN3CCCC3=O)nc1-c1cc(Br)ccc1-2 [Compound 8591, 3-Bromo-10-methyl-6-(2-oxo-pyrrolidin-1-ylmethyl)-9H-imidazo[1,5-a][1,2,4]triazolo[1,5-d][1,4]benzodiazepine]	–	88	94	73	−31%	624 nM	+4%	7.1 nM	–	–	−7%	+23%	669 nM	515 nM	–
Cc1onc(-c2ccccc2)c1COc1ccc(C(=O)NC(C)C)cn1 [Compound O1, N-Isopropyl-6-(5-methyl-3-phenyl-isoxazol-4-ylmethoxy)-nicotinamide]	–	388	77	85	−50%	504 nM	−19%	–	–	–	−34%	−43%	101 nM	110 nM	1.3 nM
Cc1onc(-c2ccccc2)c1COc1ccc(C(=O)N2CCn3cnnc3C2)cn1 [Compound P1, (5,6-Dihydro-8H-[1,2,4]triazolo[4,3-a]pyrazin-7-yl)-[6-(5-methyl-3-phenyl-isoxazol-4-ylmethoxy)-pyridin-3-yl]-methanone]	–	–	–	–	–	–	–	–	–	–	–	–	–	–	29.9 nM
Cc1onc(-c2ccccc2)c1COc1ccc(C(=O)N2CC3(COC3)C2)cn1 [Compound Q1, [6-(5-Methyl-3-phenyl-isoxazol-4-ylmethoxy)-pyridin-3-yl]-(2-oxa-6-aza-spiro[3.3]hept-6-yl)-methanone]	–	42	29	26	−35%	633 nM	−11%	–	–	–	−18%	−17%	438 nM	400 nM	15.1 nM
Cc1onc(-c2ccc(Cl)cc2)c1COc1ccc(C(=O)N2CCOCC2)cn1 [Compound S1, {6-[3-(4-Chloro-phenyl)-5-methyl-isoxazol-4-ylmethoxy]-pyridin-3-yl}-morpholin-4-yl-methanone]	–	102	39	41	–	551 nM	–	–	–	–	–	–	209 nM	220 nM	5.4 nM
Cc1onc(-c2ccccn2)c1COc1ccc(C(=O)N2CCOCC2)cn1 [Compound T1, [6-(5-Methyl-3-pyridin-2-yl-isoxazol-4-ylmethoxy)-pyridin-3-yl]-morpholin-4-yl-methanone]	–	32	20	27	−31%	468 nM	−3%	–	–	–	+5%	+9%	293 nM	387 nM	14.6 nM
Cc1onc(-c2ccc(F)cn2)c1COc1ccc(C(=O)NC(C)C)cn1 [Compound U1]	–	–	–	–	−33%	–	−15%	–	–	–	−34%	−21%	–	–	–
Cc1onc(-c2ccc(F)cn2)c1COc1ccc(C(=O)N2CCS(=O)(=O)CC2)cn1 [Compound V1, (1,1-Dioxo-1λ,6-thiomorpholin-4-yl)-{6-[3-(5-fluoro-pyridin-2-yl)-5-methyl-isoxazol-4-ylmethoxy]-pyridin-3-yl}-methanone]	–	119	44	63	−33%	143 nM	0%	–	–	–	+9%	+16%	53.3 nM	76.1 nM	1.2 nM
Cc1onc(-c2ccc(Cl)cn2)c1COc1ccc(C(=O)N2CCSCC2)cn1 [Compound W1, {6-[3-(5-Chloro-pyridin-2-yl)-5-methyl-isoxazol-4-ylmethoxy]-pyridin-3-yl}-thiomorpholin-4-yl-methanone]	–	87	27	44	–	34.6 nM	–	–	–	–	–	–	10.7 nM	17.7 nM	0.4 nM
